Laboratory results from the RepoRT retention time repository (doi:10.1021/acs.analchem.2c02893).

Assay: RP, Thermo Scientific Acclaim RSLC 120 C18, 100 × 2.1 mm, 2.2 µm, 30 °C, 0.2 mL/min, estimated dead time 1.1 min; A: 90% water + 10% methanol + 0.01% formic acid + 5 mM ammonium formate, pH 3.61; B: methanol + 0.01% formic acid + 5 mM ammonium formate, pH 3.61; gradient (min/%B) 0/1 1/1 2/39 13/99.9 15/99.9 15.1/1 20.1/1
Details: stereoisomer not certain

Structure (SMILES)	LC retention time
CC(C)(C)CC(C)(C)c1ccc(OCCOCC[N+](C)(C)Cc2ccccc2)cc1 [Benzethonium]	11.6 min
CN(CC(O)CO)C(=O)c1c(I)c(NC(=O)C(CO)CO)c(I)c(C(=O)N(C)CC(O)CO)c1I (stereo not drawn) [Iobitridol]	2.74 min
Cc1cccc(CN2CCN(C(c3ccccc3)c3ccc(Cl)cc3)CC2)c1 (stereo not drawn) [Meclozine]	11.3 min
COc1ccc2c3c1OC1C(OC(C)=O)=CCC4C(C2)N(C)CCC314 (stereo not drawn) [Thebacon]	4.47 min
CCOP(=S)(OCC)Oc1ccc2c(C)c(Cl)c(=O)oc2c1 [Coumaphos]	11.2 min
COCCOc1ccccc1S(=O)(=O)NC(=O)Nc1nc(OC)nc(OC)n1 [Cinosulfuron]	6.36 min
O=C(Nc1cccc2ccccc12)c1cn(CCCCCF)c2ccncc12 [PCN-5F]	11.8 min
O=C(O)C(c1ccccc1)C1CCCCN1 (stereo not drawn) [Ritalinic acid]	4.61 min
CC(N)Cc1ccc2[nH]ccc2c1 (stereo not drawn) [5-(2-Aminopropyl)indole (5-API)]	4.07 min
COC(=O)c1ccccc1S(=O)(=O)NC(=O)N(C)c1nc(C)nc(OC)n1 [Tribenuron-methyl]	7.94 min
COc1ncc(F)c2nc(S(=O)(=O)Nc3c(F)cccc3F)nn12 [Florasulam]	5.75 min
Cc1ccsc1C=CC1=NCCCN1C [Morantel]	4.36 min
O=C1NCCN1CCN1CCC(c2cn(-c3ccc(F)cc3)c3ccc(Cl)cc23)CC1 [Sertindole]	9.26 min
CCCCC1=NC2(CCCC2)C(=O)N1Cc1ccc(-c2ccccc2-c2nn[nH]n2)cc1 [Irbesartan]	9.44 min
NS(=O)(=O)c1ccc(N2CCCCS2(=O)=O)cc1 [Sulthiame]	4.11 min
CCCCCn1nc(C(=O)NC(C(N)=O)C(C)C)c2ccccc21 (stereo not drawn) [AB-PINACA]	10.5 min
CCCNCCOc1c(Cl)cc(Cl)cc1Cl	6.99 min
CCOP(=S)(OCC)SCS(=O)C(C)(C)C (stereo not drawn) [Terbufos-sulfoxide]	9 min
Nc1nc(=O)n(C2CSC(CO)O2)cc1F (stereo not drawn) [Emtricitabine]	3.41 min
CCOc1ccc2c3c1OC1C(O)C=CC4C(C2)N(C)CCC341 (stereo not drawn) [Morphine-Ethyl]	4.08 min
CSc1nnc(C(C)(C)C)c(=O)[nH]1 [Metribuzin-Desamino (DA)]	7.46 min

Structure (SMILES)	LC retention time
O=C1CN=C(C2=CCCCC2)c2cc(Cl)ccc2N1 [Tetrazepam-Nor]	10.1 min
O=C1OCC(O)=C1Cc1ccccc1 [Benzyltetronic acid (2-)]	5.06 min
CC(C)(C)N(NC(=O)c1ccc(Cl)cc1)C(=O)c1ccccc1 [Halofenozide]	9.25 min
COC(C)C(O)(C(=O)OCC1=CCN2CCC(O)C12)C(C)C (stereo not drawn) [Heliotrine]	4.27 min
C=CC1(C)OC(=O)N(c2cc(Cl)cc(Cl)c2)C1=O (stereo not drawn) [Vinclozolin]	10.6 min
CCCN(CCOc1c(Cl)cc(Cl)cc1Cl)C(=O)n1ccnc1 [Prochloraz]	11.2 min
CCCN(CCC)CCc1c[nH]c2ccccc12 [DPT]	5.26 min
COc1cc2[nH]c(C)c(CCN3CCN(c4ccccc4)CC3)c2cc1OC [Oxypertine]	5.76 min
CCCCN1CCCCC1C(=O)Nc1c(C)cccc1C (stereo not drawn) [Bupivacaine]	6.18 min
COC(=O)C(c1ccccc1)C1CCCCN1 (stereo not drawn) [Methylphenidate]	4.96 min
COC(C)(C)CCCC(C)CC=CC(C)=CC(=O)OC(C)C (stereo not drawn) [Methoprene]	13.6 min
CCC(C)(NC(=O)c1cc(Cl)c(C)c(Cl)c1)C(=O)CCl (stereo not drawn) [Zoxamide]	11.1 min
CC(C)C(NC(=O)c1nn(CCCCCF)c2ccccc12)C(N)=O (stereo not drawn) [AB-PINACA 5F]	9.12 min
CCOC(=O)Nc1ccc(NCc2ccc(F)cc2)nc1N [Flupirtine]	7.09 min
CCN(CC)C(=O)C1C=C2c3cccc4c3C(O)(CC2N(C)C1)C(=O)N4 (stereo not drawn) [2-Oxo-3-hydroxy-LSD]	4.23 min
Cc1ccc(C(=O)c2ccc(CC(=O)O)n2C)cc1 [Tolmetin]	7.89 min
CN(C)Cc1nnc2n1-c1ccc(Cl)cc1C(c1ccccc1)=NC2 [Adinazolam]	8.28 min
COC(=O)c1ccccc1C(=O)c1ccc(OCCN2CCCCC2)cc1 [Pitofenone]	5.44 min
COC(=O)c1ccccc1S(=O)(=O)NC(=O)Nc1nc(C)cc(C)n1 [Sulfometuron-methyl]	6.92 min
OC(c1ccc(Cl)cc1)(c1cncnc1)c1ccccc1Cl (stereo not drawn) [Fenarimol]	10.1 min
CNC(=O)C=C(C)OP(=O)(OC)OC [Monocrotophos]	4.36 min

Structure (SMILES)	LC retention time
CC(C)(COCc1cccc(Oc2ccccc2)c1)c1ccc(OC(F)(F)Br)cc1 [Halfenprox]	14.3 min
CC1N=C(c2ccccc2Cl)c2cc([N+](=O)[O-])ccc2NC1=O (stereo not drawn) [Meclonazepam]	8.28 min
CC(=O)N(C)N(C(=O)C(=O)N(C)C)c1ccccc1 [AMDOPH]	5.06 min
C=CC1(C)CC(OC(=O)CSCCN(CC)CC)C2(C)C(C)CCC3(CCC(=O)C32)C(C)C1O (stereo not drawn) [Tiamulin]	7.71 min
O=C1CN=C(c2ccccc2)c2cc([N+](=O)[O-])ccc2N1 [Nitrazepam]	7.79 min
Cc1ccc(NS(=O)(=O)N(C)C)cc1 [DMST (N.N-Dimethyl-N'-p-tolylsulphamide)]	7.25 min
OC(Cc1ccccc1Cl)(Cn1cncn1)C1(Cl)CC1 (stereo not drawn) [Prothioconazole-desethio]	10.5 min
CCCc1nn(C)c2c(=S)nc(-c3cc(S(=O)(=O)N4CCN(CC)CC4)ccc3OCC)[nH]c12 [Sildenafil Thiohomo]	10.6 min
NC(N)=NCC1COc2ccccc2O1 (stereo not drawn) [Guanoxan]	4.57 min
CCCCc1oc2ccccc2c1C(=O)c1cc(I)c(OCCN(CC)CC)c(I)c1 [Amiodarone]	12.1 min
CN(C)CCN1C(=O)c2ccccc2N(C)c2ccccc21 [Dibenzepin]	5.49 min
CON=C(C(=O)OC)c1ccccc1COc1ccccc1C [Kresoxim-methyl]	10.8 min
NC(=O)Nc1ccc(Cl)c(Cl)c1 [3-4-(dichlorophenyl)-urea]	7.99 min
OCc1nnc2n1-c1ccc(Cl)cc1C(c1ccccc1)=NC2 [Alprazolam- alpha-Hydroxy]	8.11 min
CC(=O)OC1C=CC2C3Cc4ccc(O)c5c4C2(CCN3C)C1O5 (stereo not drawn) [MAM (6-O-Monoacetylmorphine)]	3.75 min
CC(C)(C)C(O)C(=Cc1ccc(Cl)cc1Cl)n1cncn1 (stereo not drawn) [Diniconazole]	11.5 min
CCCCc1c(C)nc(N(C)C)[nH]c1=O [Dimethirimol]	7.7 min
CN1CCN(CCCN2c3ccccc3Sc3ccc(Cl)cc32)CC1 [Prochlorperazine]	9.89 min
CCOC(=O)c1ccc(N)cc1 [Benzocaine]	6.27 min
Cc1ccc(N)c(C)c1 [Dimethylaniline (2.4-) (Metabolite Amitraz)]	5.04 min
CCCc1ccc(C(=O)c2cn(CCC)c3ccccc23)c2ccccc12 [JWH-180]	12.7 min

Structure (SMILES)	LC retention time
CCCC(Cn1cncn1)c1ccc(Cl)cc1Cl (stereo not drawn) [Penconazole]	10.8 min
CC(Cc1ccccc1)NCCC#N (stereo not drawn) [Fenproporex (NARL)]	4.14 min
O=C(O)Cn1c(=O)sc2cccc(Cl)c21 [Benazolin]	5.58 min
CC(C)CN(CC(O)C(Cc1ccccc1)NC(=O)OC1COC2OCCC12)S(=O)(=O)c1ccc(N)cc1 (stereo not drawn) [Darunavir]	8.21 min
CN(C)C(=O)NC1CCCCCCC1 [Cycluron]	8.47 min
Cn1c(=O)c2c(ncn2CC(O)CO)n(C)c1=O (stereo not drawn) [Diprophylline]	3.76 min
CN1CCN(CC(=O)N2c3ccccc3C(=O)Nc3cccnc32)CC1 [Pirenzepine]	4.11 min
Cc1cccc(C)c1N(Cn1cccn1)C(=O)CCl [Metazachlor]	8.11 min
O=C(NCc1ccccc1)c1cn(CCCCCF)c2ccccc12 [SDB-006-5F]	10 min
CCN(CCO)CCCC(C)Nc1ccnc2cc(Cl)ccc12 (stereo not drawn) [Chloroquine-Hydroxy]	3.98 min
CCOc1nc2cccc(C(=O)OC(C)OC(=O)OC3CCCCC3)c2n1Cc1ccc(-c2ccccc2-c2nn[nH]n2)cc1 (stereo not drawn) [Candesartan cilexetil]	12.2 min
CNC(C)C(=O)c1ccc(C)c(C)c1 (stereo not drawn) [DMMC (3-4-)]	5.23 min
CCOP(=S)(Oc1ccc(C#N)cc1)c1ccccc1 (stereo not drawn) [Cyanofenphos]	10.9 min
Nc1ccc([N+](=O)[O-])cc1C(=O)c1ccccc1 [Benzophenone -2-Amino-5-nitro]	8.99 min
CC12CCC(=O)C=C1CCC1C2C(=O)CC2(C)C1CCC2(O)C(=O)CO (stereo not drawn) [Cortisone E  (4-Pregnene-17.21-diol-3.11.20-trione)]	7.41 min
CNC1C(C)OC(OC2C(C)OC(OC3C(C)=CCC4CC(CC5(C=CC(C)C(C(C)C)O5)O4)OC(=O)C4C=C(C)C(O)C5OCC(=CC=CC3C)C45O)CC2OC)CC1OC (stereo not drawn) [Emamectin B1b]	12 min
CSc1nc(NC2CC2)nc(NC(C)(C)C)n1 [Irgarol]	10.5 min
CN(CC=Cc1ccccc1)Cc1cccc2ccccc12 [Naftifine]	8.52 min
CCC(N)Cc1c[nH]c2ccccc12 (stereo not drawn) [ET- alpha]	5.04 min
CCC1OC(=O)C(C)C(=O)C(C)C(OC2OC(C)CC(N(C)C)C2O)C(C)(OC)CC(C)C(=O)C(C)C2N(CCCCn3cnc(-c4cccnc4)c3)C(=O)OC12C (stereo not drawn) [Telithromycin]	7.25 min
